Data reported in BigSolDB 2.1.

O=c1cc(-c2ccc(O)c(O)c2)oc2cc(O)cc(O)c12
solubility (mole fraction)
Conditions	298.2 K	303.2 K	308.2 K	313.2 K	318.2 K
in DMSO	0.0515	0.0564	0.0615	0.0665	0.0715
in ethanol	0.00188	0.00209	0.00241	0.00273	0.00308
in ethyl acetate	0.00261	0.00313	0.00368	0.00438	0.00511
in ethylene glycol	0.0013	0.00158	0.0019	0.00229	0.00268
in isopropanol	0.00251	0.00278	0.00316	0.00366	0.00414
in methanol	0.00047	0.000537	0.000638	0.000727	0.000816
in n-butanol	0.00335	0.00369	0.00415	0.00477	0.00536
in propylene glycol	0.00212	0.00249	0.00289	0.00336	0.00389
in sec-butanol	0.0035	0.00381	0.00435	0.00489	0.00553
in transcutol	0.0309	0.0331	0.0354	0.0378	0.0401
in water	1.75e-06	2.24e-06	2.83e-06	3.49e-06	4.17e-06

Conditions	solubility (mole fraction)
in PEG-400, 298.2 K	0.1
in PEG-400, 303.2 K	0.106
in PEG-400, 308.2 K	0.113
in PEG-400, 313.2 K	0.119
in PEG-400, 318.2 K	0.127
